From PMC8179433, “Rational designing of glyco-nanovehicles to target cellular heterogeneity” (Chemical Science, 2021)
Read-outs that look alike come from different tables or passages of the source.

Assays:
HB-EGF [1] = target: T1, HB-EGF (Homo sapiens, UniProt Q99075); assay: SPR; also competition ELISA against immobilized heparin (IC50 =[…]); type: binding
T1 construct: gene HBEGF

HB-EGF [2] = target: T1, HB-EGF; assay: as above; type: binding; remark: listed apart in the source

T1 sequence (Q99075 63-148): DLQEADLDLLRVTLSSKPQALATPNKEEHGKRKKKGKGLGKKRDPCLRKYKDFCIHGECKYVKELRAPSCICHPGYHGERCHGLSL

Row | Structure (SMILES) | Kd (HB-EGF [1]) | Kd (HB-EGF [2])
1 | CC(=O)N[C@H]1[C@@H](O[C@H]2[C@H](O)[C@@H](O)[C@H](OCCCN)O[C@H]2C(=O)O)O[C@H](COP(=O)(O)O)[C@@H](O[C@@H]2O[C@@H](C(=O)O)[C@@H](O[C@H]3O[C@H](COP(=O)(O)O)[C@@H](O)[C@H](O)[C@H]3NC(C)=O)[C@H](O)[C@H]2O)[C@@H]1O [compound 8, 6-O-phosphated HS tetrasaccharide (8)] | 11.1 µM | –
2 | CC(=O)N[C@H]1[C@@H](O[C@H]2[C@H](O)[C@@H](O)[C@H](OCCCN)O[C@H]2C(=O)O)O[C@H](COS(=O)(=O)O)[C@@H](O[C@@H]2O[C@@H](C(=O)O)[C@@H](O[C@H]3O[C@H](COS(=O)(=O)O)[C@@H](O)[C@H](O)[C@H]3NC(C)=O)[C@H](O)[C@H]2O)[C@@H]1O [compound 7, 6-O-S HS tetrasaccharide (7)] | – | 11.1 µM
